The values that follow come from US11760986B2, “Evolution of proteases” (President and Fellows of Harvard College, priority 2014, dated 2023).

In test [1] the target is T1, HCV protease D168Y (Hepatitis C virus genotype 1a, UniProt P27958, C1073S/C1078L/C1185S/D1194Y/I1043Q/I1044E/I1098T/L1039E/L1040E/L1047Q/L1179I/N1200S/P1112Q/Q1106K/T1100M/T1173A).
T1 construct: 6xHis (N); TEV cleavage site (N); NS4a cofactor peptide (fused in the construct, before NS3) (N); made in house; host or cells: E. coli NEB BL21 DE3
Briefly: biochemical. The method, then: (§1) Purification and in vitro assays of evolved HCV variants. HCV protease variants were sub-cloned by Gibson assembly out of the phage genome and into the previously mentioned EP. EPs were transformed into NEB BL21 DE3 chemically competent cells. Starter cultures were grown to saturation, and 2 mL was used to inoculate 500 mL LB. At OD600=0.6, cultures were transferred to 20° C. and induced with 0.5% arabinose for 6 h. Cells were harvested by centrifugation at 5,000 g for 10 m, and resuspended in lysis/bind buffer (50 mM Tris-HCl pH 8.0, 500 mM NaCl, 10% glycerol, 5 mM imidazole). Cells were lysed by sonication for a total of 2 m, and then centrifuged for 20 m at 18,000 g to clarify the lysate. Supernatant was flowed through 0.2 mL His-pur nickel resin spin columns that were equilibrated with binding buffer (Pierce-Thermo). Resin was washed with 4 column volumes of wash buffer (50 mM Tris-HCl pH 8.0, 500 mM NaCl, 10% glycerol, 20 mM imidazole). HCV protease was eluted in 4 column volumes of 50 mM Tris-HCl pH 8.0, 500 mM NaCl, 10% glycerol, 200 mM imidazole. Samples were further purified by size exclusion chromatography on a SuperDex 75 10/300 GL column (GE Healthcare). Size exclusion was performed in 50 mM Tris-HCl pH 8.0, 100 mM NaCl, 10% glycerol, 1 mM DTT. Protein concentrations were determined by UV280 on a Nanodrop machine and calculated using an extinction coefficient of 19,000 cm^−1 M^−1 and a molecular weight of 23 kDa.
(§2) In vitro assays were performed using the commercial HCV RET Substrate 1 (Anaspec), an internally quenched probe that fluoresces upon proteolytic cleavage, according to the manufacturer's instructions. Protease and inhibitors were incubated in assay buffer at room temperature for 5 m prior to addition of substrate. […] The assay buffer contained 50 mM Tris HCl pH 8.0, 100 mM NaCl, 20% glycerol, 5 mM DTT. Assays were performed in triplicate, and initial reaction velocities were calculated and normalized to controls without inhibitor. The data was fit to the Hill Equation using Igor Pro with base and max parameters fixed at one and zero respectively.

Test [2] has as its system HCV protease D168Y. Kind of test: biochemical. Also noted: species or system hepatitis C virus. The following applies: D168Y versus wild-type HCV protease. The method, then:
as §1, §2

A further test deals with T2, wild-type HCV protease (Hepatitis C virus genotype 1a, UniProt P27958, L1039E/L1040E/I1043Q/I1044E/L1047Q/C1073S/C1078L/I1098T/Q1106K/P1112Q/L1179I/C1185S/N1200S, form not given).
T2 construct: 6xHis-TEVcutsite-HCV protease 2610 . .; fused on or other part: N-terminal Met-6xHis-TEV site, then an NS4A cofactor peptide ([…], about NS4A 21-33 with C22S and V30N); The peptide is fused in front of NS3 residue 4; The helicase domain is absent; the chain ends at NS3 182
Kind of test: In vitro HCV protease inhibition assay with internally quenched fluorescent substrate (HCV RET Substrate 1, Anaspec). The conditions noted are these: 40 nM protease, 7.5 μM substrate, 30° C., IC50±standard deviation. It is filed as biochemical. As for the experimental part:
as §1, with “Resin was washed with 4 column volumes of wash buffer (50 mM Tris-HCl pH 8.0, 500 mM NaCl, 10% glycerol, 20 mM imidazole). HCV protease was eluted in 4 column volumes of 50 mM Tris-HCl pH 8.0, 500 mM NaCl, 10% glycerol, 200 mM imidazole. Samples were further purified by size exclusion chromatography on a SuperDex 75 10/300 GL column (GE Healthcare). Size exclusion was performed in 50 mM Tris-HCl pH 8.0, 100 mM NaCl, 10% glycerol, 1 mM DTT.” left out
In vitro assays were performed using the commercial HCV RET Substrate 1 (Anaspec), an internally quenched probe that fluoresces upon proteolytic cleavage, according to the manufacturer's instructions. […] Assays were performed in triplicate, and initial reaction velocities were calculated and normalized to controls without inhibitor. […]

The subject of test [3] is HCV protease on the HCV PA-RNAP. The following applies: host cells incubated with inhibitor 90 min, then HCV protease phage, luminescence after 3 h.
Protocol: Inhibition of PA-RNAP response in host E. coli cells. […] After 3 h of incubation at 37° C., the luminescence of each culture was measured on a Tecan Infinite Pro plate reader and normalized to OD600. In the absence of inhibitor, phage-encoded protease will activate the PA-RNAP leading to robust production of luciferase. Relative dose responses to inhibitors compared to control cells without drug were measured in triplicate.
Another test concerns the target HCV protease (Hepatitis C virus genotype 1a, UniProt P27958). The following applies: literature value (refs 35, 36); cited from earlier work.
The target of test [4] is T3, HCV protease D168E (Hepatitis C virus genotype 1a, UniProt P27958, L1039E/L1040E/I1043Q/I1044E/L1047Q/C1073S/C1078L/I1098T/Q1106K/P1112Q/L1179I/C1185S/D1194E/N1200S, form not given).
T3 construct: 6xHis-TEVcutsite-HCV protease 2610 . .; fused on or other part: N-terminal Met-6xHis-TEV site, then an NS4A cofactor peptide ([…], about NS4A 21-33 with C22S and V30N); The peptide is fused in front of NS3 residue 4; The helicase domain is absent; the chain ends at NS3 182
Type of test: biochemical. The following applies: HCV protease D168E; 40 nM protease, 7.5 μM substrate, 30° C.; IC50±standard deviation. The method, then:
as §1, §2

The test system of test [5] is HCV protease D168E. It is filed as biochemical, hepatitis C virus. The following applies: D168E versus wild-type HCV protease. As for the experimental part: as §1, §2

Structures are written as SMILES.

On to `CC(C)(C)OC(=O)N[C@H]1CCCCC/C=C\[C@@H]2C[C@@]2(C(=O)NS(=O)(=O)C2CC2)NC(=O)[C@@H]2C[C@@H](OC(=O)N3Cc4cccc(F)c4C3)CN2C1=O` [danoprevir], for which the IC50 (commonly the concentration at which inhibition is half-maximal) is 34.4 ± 2.8 nM on HCV protease D168Y [1], 1.3 ± 0.1 nM at wild-type HCV protease, roughly 0.3 nM on HCV protease and 38.9 ± 2.4 nM against HCV protease D168E [4]. Moreover, the “increase of the IC50 by the mutation” value in the test on HCV protease D168Y [2] and in the test with HCV protease D168E [5] was roughly 30 fold throughout. For the same compound, the “inhibition of cellular gene expression arising from the activity of HCV protease on the HCV PA-RNAP” value in test [3] is recorded as “in a dose-dependent manner”.

As for `C=C[C@@H]1C[C@]1(NC(=O)[C@@H]1C[C@@H](Oc2ncc(OC)c3ccc(Cl)cc23)CN1C(=O)[C@@H](NC(=O)OC(C)(C)C)C(C)(C)C)C(=O)NS(=O)(=O)C1CC1` [asunaprevir], the “increase of the IC50 by the mutation” value in the test with HCV protease D168Y [2] was 30 fold; in the test on HCV protease D168E [5] it was roughly 10 fold. Further, the “inhibition of cellular gene expression arising from the activity of HCV protease on the HCV PA-RNAP” value in test [3] is recorded as “in a dose-dependent manner”.
